The results in this text go back to PubChem BioAssay AID1745844 (Carcinogenic Potency Database (CPDB), 2022).

For orientation: TD50 means the 50% point of the dose-response relation for the toxic effect studied.

Activity calls are given as the source filed them. No rule for the calls is given here.

For the data set, the system named is rodent lifetime carcinogenesis bioassay, tumor incidence TD50. As to the kind of experiment: chronic cancer bioassays in animals – CPDB, compiled studies (AID 1745844).

With `CCOC(=O)C(C)(C)Oc1ccc(Cl)cc1`, the TD50 (mouse, strain AP Alderly Park, females, in feed, site: liver, lesion: hepatocellular adenoma, dosed 78 weeks, study length 78 weeks) is 1480 mg/kg/day (inactive); the TD50 (mouse, strain AP Alderly Park, males, in feed, site: liver, lesion: hepatocellular adenoma, dosed 78 weeks, study length 78 weeks) was 313 mg/kg/day (inactive); the TD50 (mouse, strain AP Alderly Park, males, in feed, site: liver, lesion: hepatocellular carcinoma, dosed 78 weeks, study length 78 weeks) is 9710 mg/kg/day (inactive); the TD50 (mouse, strain C57BL/10J, females, in feed, site: liver, lesion: hepatocellular adenoma, dosed 78 weeks, study length 78 weeks) was 14700 mg/kg/day (inactive); the TD50 (mouse, strain C57BL/10J, males, in feed, site: liver, lesion: hepatocellular adenoma, dosed 78 weeks, study length 78 weeks) is 3640 mg/kg/day (inactive); the TD50 (rat, strain Fischer 344, males, in feed, site: liver, lesion: hepatocellular carcinoma, dosed 121 weeks, study length 121 weeks) was 169 mg/kg/day. Under “rat, strain Fischer 344, males, in feed, site: pancreas, lesion: acinar-cell carcinoma, dosed 121 weeks, study length 121 weeks”, the TD50 was 1300 mg/kg/day. Also, the carcinogen call is “negative (inactive)” (mouse, strain C57BL/10J, females, in feed, site: lung, lesion: one or several types, types not named, dosed 78 weeks, study length 78 weeks) and “negative (inactive)” (mouse, strain C57BL/10J, males, in feed, site: lung, lesion: one or several types, types not named, dosed 78 weeks, study length 78 weeks).

For the compound `COc1cc(/C=C/C(=O)O[C@H]2CC[C@]34C[C@]35CC[C@]3(C)[C@@H]([C@H](C)CCC=C(C)C)CC[C@@]3(C)[C@@H]5CC[C@H]4C2(C)C)ccc1O`, the TD50 (mouse, strain B6C3F1, females, in feed, site: all sites, lesion: malignant lymphoma, dosed 78 weeks, study length 79 weeks) was 5970 mg/kg/day (inactive); the TD50 (mouse, strain B6C3F1, males, in feed, site: all sites, lesion: malignant lymphoma, dosed 78 weeks, study length 79 weeks) was 15900 mg/kg/day (inactive); the TD50 (rat, strain F344/DuCrj, males, in feed, site: liver, lesion: neoplastic nodule, dosed 104 weeks, study length 105 weeks) is 68500 mg/kg/day (inactive). Also, the carcinogen call reads like this: (mouse, strain B6C3F1, females, in feed, site: liver, lesion: hepatocellular carcinoma, dosed 78 weeks, study length 79 weeks) “negative (inactive)”; (mouse, strain B6C3F1, females, in feed, site: liver, lesion: neoplastic nodule, dosed 78 weeks, study length 79 weeks) “negative (inactive)”; (mouse, strain B6C3F1, females, in feed, site: lung, lesion: alveolar/bronchiolar adenoma, dosed 78 weeks, study length 79 weeks) “negative (inactive)”; (mouse, strain B6C3F1, males, in feed, site: liver, lesion: hepatocellular carcinoma, dosed 78 weeks, study length 79 weeks) “negative (inactive)”; (mouse, strain B6C3F1, males, in feed, site: liver, lesion: neoplastic nodule, dosed 78 weeks, study length 79 weeks) “negative (inactive)”; (mouse, strain B6C3F1, males, in feed, site: lung, lesion: alveolar/bronchiolar adenocarcinoma, dosed 78 weeks, study length 79 weeks) “negative (inactive)”. Also, the carcinogen call (mouse, strain B6C3F1, males, in feed, site: lung, lesion: alveolar/bronchiolar adenoma, dosed 78 weeks, study length 79 weeks) was “negative (inactive)” and the carcinogen call (rat, strain F344/DuCrj, females, in feed, site: liver, lesion: neoplastic nodule, dosed 104 weeks, study length 105 weeks) is “negative (inactive)”.

As for `C[C@H](CCC(=O)O)[C@H]1CC[C@H]2[C@@H]3CC[C@@H]4C[C@H](O)CC[C@]4(C)[C@H]3CC[C@]12C`, the TD50 is 960 mg/kg/day (inactive) (mouse, strain B6C3F1, females, by gavage, site: any site (literature study), lesion: several types, types named in the paper, dosed 103 weeks, study length 105 weeks); 1140 mg/kg/day (mouse, strain B6C3F1, females, by gavage, site: liver, lesion: hepatocellular adenoma + hepatocellular carcinoma + neoplastic nodule, dosed 103 weeks, study length 105 weeks); 1030 mg/kg/day (mouse, strain B6C3F1, females, by gavage, site: lung, lesion: alveolar/bronchiolar adenoma + alveolar/bronchiolar carcinoma, dosed 103 weeks, study length 105 weeks); 834 mg/kg/day (mouse, strain B6C3F1, males, by gavage, site: lung, lesion: alveolar/bronchiolar adenoma + alveolar/bronchiolar carcinoma, dosed 103 weeks, study length 105 weeks); 686 mg/kg/day (inactive) (rat, strain Fischer 344, females, by gavage, site: any site (literature study), lesion: several types, types named in the paper, dosed 103 weeks, study length 104 weeks); 1890 mg/kg/day (rat, strain Fischer 344, females, by gavage, site: liver, lesion: hepatocellular adenoma + hepatocellular carcinoma + neoplastic nodule, dosed 103 weeks, study length 104 weeks). For the same compound, the TD50 is 501 mg/kg/day (inactive) (rat, strain Fischer 344, males, by gavage, site: any site (literature study), lesion: several types, types named in the paper, dosed 103 weeks, study length 104 weeks) and 2250 mg/kg/day (rat, strain Fischer 344, males, by gavage, site: liver, lesion: hepatocellular adenoma + hepatocellular carcinoma + neoplastic nodule, dosed 103 weeks, study length 104 weeks). Where the note is “mouse, strain B6C3F1, males, by gavage, site: any site (literature study), lesion: several types, types named in the paper, dosed 103 weeks, study length 105 weeks”, the carcinogen call was “negative (inactive)”.

Take `O=C1N(CCO)CCN1N=Cc1ccc([N+](=O)[O-])o1`: the TD50 by setting is: (rat, strain Sprague-Dawley, females, in feed, site: any site (literature study), lesion: several types, types named in the paper, dosed 46 weeks, study length 66 weeks) 18 mg/kg/day; (rat, strain Sprague-Dawley, females, in feed, site: mammary gland, lesion: adenocarcinoma, dosed 46 weeks, study length 66 weeks) 16.7 mg/kg/day.

For the compound `COc1ccc(CCN2CCC(Nc3nc4ccccc4n3Cc3ccc(F)cc3)CC2)cc1`, the TD50 runs as follows: (mouse, strain Swiss, females, in feed, site: any site (literature study), lesion: several types, types named in the paper, dosed 78 weeks, study length 78 weeks) 164 mg/kg/day (inactive); (mouse, strain Swiss, males, in feed, site: liver, lesion: hepatocellular adenoma, dosed 78 weeks, study length 78 weeks) 8770 mg/kg/day (inactive); (mouse, strain Swiss, males, in feed, site: liver, lesion: hepatocellular carcinoma, dosed 78 weeks, study length 78 weeks) 788 mg/kg/day (inactive); (rat, strain Charles River Crl:COBS(WI)BR, females, in feed, site: liver, lesion: neoplastic nodule, dosed 105 weeks, study length 105 weeks) 309 mg/kg/day (inactive); (rat, strain Charles River Crl:COBS(WI)BR, males, in feed, site: any site (literature study), lesion: several types, types named in the paper, dosed 105 weeks, study length 105 weeks) 32.5 mg/kg/day (inactive). In addition, the carcinogen call is “negative (inactive)” (mouse, strain Swiss, females, in feed, site: liver, lesion: hepatocellular adenoma, dosed 78 weeks, study length 78 weeks); “negative (inactive)” (mouse, strain Swiss, females, in feed, site: lung, lesion: one or several types, types not named, dosed 78 weeks, study length 78 weeks); “negative (inactive)” (mouse, strain Swiss, males, in feed, site: any site (literature study), lesion: several types, types named in the paper, dosed 78 weeks, study length 78 weeks); “negative (inactive)” (mouse, strain Swiss, males, in feed, site: lung, lesion: one or several types, types not named, dosed 78 weeks, study length 78 weeks); “negative (inactive)” (rat, strain Charles River Crl:COBS(WI)BR, females, in feed, site: any site (literature study), lesion: several types, types named in the paper, dosed 105 weeks, study length 105 weeks); “negative (inactive)” (rat, strain Charles River Crl:COBS(WI)BR, males, in feed, site: liver, lesion: neoplastic nodule, dosed 105 weeks, study length 105 weeks).

Regarding `OCN(CO)c1nc(N(CO)CO)nc(N(CO)CO)n1`, the TD50 is, setting by setting: (rat, strain Sprague-Dawley, females, in feed, site: any site (literature study), lesion: several types, types named in the paper, dosed 44 weeks, study length 66 weeks) 6.82 mg/kg/day; (rat, strain Sprague-Dawley, females, in feed, site: kidney/pelvis, lesion: transitional-cell carcinoma, dosed 44 weeks, study length 66 weeks) 33.6 mg/kg/day; (rat, strain Sprague-Dawley, females, in feed, site: mammary gland, lesion: adenocarcinoma, dosed 44 weeks, study length 66 weeks) 10.2 mg/kg/day; (rat, strain Sprague-Dawley, females, in feed, site: mammary gland, lesion: several types, types named in the paper, dosed 44 weeks, study length 66 weeks) 11.9 mg/kg/day.

Take `C#CC(C)(C)NC(=O)c1cc(Cl)cc(Cl)c1`: the TD50 by setting is: (mouse, strain B6C3F1, males, in feed, site: liver, lesion: hepatocellular carcinoma, dosed 78 weeks, study length 78 weeks) 1480 mg/kg/day; (mouse, strain B6C3F1, males, in feed, site: liver, lesion: hepatocellular carcinoma, dosed 104 weeks, study length 104 weeks) 140 mg/kg/day; (mouse, strain B6C3F1, males, in feed, site: liver, lesion: several types, types named in the paper, dosed 52 weeks, study length 52 weeks) 1360 mg/kg/day; (mouse, strain B6C3F1, males, in feed, site: liver, lesion: several types, types named in the paper, dosed 78 weeks, study length 78 weeks) 700 mg/kg/day; (mouse, strain B6C3F1, males, in feed, site: liver, lesion: several types, types named in the paper, dosed 104 weeks, study length 104 weeks) 209 mg/kg/day.

In the case of `O=NN1CCCCC1C(=O)O` (stereo unspecified), the TD50 (rat, strain MRC, females, in drinking water, site: any site (literature study), lesion: several types, types named in the paper, dosed 75 weeks, study length 104 weeks) was 4.99 mg/kg/day (inactive) and the TD50 (rat, strain MRC, males, in drinking water, site: any site (literature study), lesion: several types, types named in the paper, dosed 75 weeks, study length 104 weeks) is 3.82 mg/kg/day (inactive).

As for `CN(C)P(=O)(N(C)C)N(C)C`, the TD50 by setting is: (rat, strain Charles River CD (Sprague-Dawley), both sexes, inhaled, site: nasal cavity, adenoid, lesion: squamous-cell carcinoma, dosed 53 weeks, study length 104 weeks) 0.519 mg/kg/day; (rat, strain Charles River CD (Sprague-Dawley), both sexes, inhaled, site: nasal cavity, adenoid, lesion: squamous-cell carcinoma, dosed 72 weeks, study length 104 weeks) 0.608 mg/kg/day; (rat, strain Charles River CD (Sprague-Dawley), both sexes, inhaled, site: nasal cavity, lesion: epidermoid carcinoma, dosed 53 weeks, study length 104 weeks) 0.0581 mg/kg/day; (rat, strain Charles River CD (Sprague-Dawley), both sexes, inhaled, site: nasal cavity, lesion: epidermoid carcinoma, dosed 72 weeks, study length 104 weeks) 0.0456 mg/kg/day; (rat, strain Charles River CD (Sprague-Dawley), both sexes, inhaled, site: nasal cavity, lesion: malignant tumor, dosed 53 weeks, study length 104 weeks) 0.0416 mg/kg/day; (rat, strain Charles River CD (Sprague-Dawley), both sexes, inhaled, site: nasal cavity, lesion: malignant tumor, dosed 72 weeks, study length 104 weeks) 0.0387 mg/kg/day. Further, the TD50 (rat, strain Charles River CD (Sprague-Dawley), both sexes, inhaled, site: nasal cavity, lesion: several types, types named in the paper, dosed 53 weeks, study length 104 weeks) is 0.0345 mg/kg/day and the TD50 (rat, strain Charles River CD (Sprague-Dawley), both sexes, inhaled, site: nasal cavity, lesion: several types, types named in the paper, dosed 72 weeks, study length 104 weeks) was 0.0344 mg/kg/day.
